From patent publication US10201175B2, “N-acylated 1-aminocycloalkyl carboxylic acids as food flavouring compounds” (Givaudan S.A., priority 2012, dated 2019)

Tests used:
[1] = Expert taster evaluation, test on Kikkoman soy sauce low salt; conditions: 0.5 ppm in Kikkoman soy sauce low salt; salt level in application 0.3-1.0%
Description: (§1) Samples were prepared and evaluated by expert tasters. Tasters were asked to describe the samples focusing on authentic taste, mouthfeel, fullness, salivation, salty-ness, umami, sweetness, juiciness, richness, long lastingness and fattiness.
Test on Kikkoman soy sauce low salt
(§2) Salt level pure product between 5-40%
(§3) Salt level in application 0.3-1.0%

[2] = Expert taster evaluation, test in fish sauce; conditions: 0.5 ppm in fish sauce; salt level in application 0.3-1.0%
Description: as §1, §2, §3

[3] = Expert taster evaluation, test in mayonnaise; conditions: 0.5 ppm in low fat mayonnaise (27% fat)
Description: as §1
Fat levels between 10-80%
Low fat Mayonnaise (27% Fat)

[4] = Expert taster evaluation, test in dressings; conditions: 0.5 ppm in low fat salad dressing (13.6% fat)
Description: as §1
Low fat salad dressing (13.6% Fat)

[5] = Expert taster evaluation, test in soups and bouillons; conditions: 0.7% salt, 0.5% fat
Description: as §1
Test in Soups and Bouillons
Standard Chicken bouillon base

[6] = Expert taster evaluation, test in jus and fonds; conditions: 40 ppb in beef jus
Description: as §1

[7] = Expert taster evaluation, test in cheese (spreadable cheese ERU); conditions: 0.5 ppm in spreadable cheese ERU
Description: as §1

[8] = Expert taster evaluation, test in cheese sauce; conditions: 0.5 ppm in cheese sauce, 5% fat, 1.6% salt
Description: as §1
Cheese sauce: 5% fat 1.6% salt

With `CCCCCCCC/C=C\CCCCCCCC(=O)NC1(C(=O)O)CC1` [C18:1-ACCA, N-oleoyl 1-amino-cyclopropyl carboxylic acid] the “taste description by expert tasters” value [1] was “Strong upfront saltiness lingering, very strong saltiness”, the “taste description by expert tasters” value [2] was “Strong saltiness lingering, strong body mouthfeel” and the “taste description by expert tasters” value [3] was “Nice balanced, full mouthfeel, increased eggyness”. For the same compound, the “taste description by expert tasters” value [4] was “Increased mouthfeel body less acidic”, the “taste description by expert tasters” value ([5]; 0.2 ppm in standard chicken bouillon base) was “Saltier, Stronger and more umami” and the “taste description by expert tasters” value ([5]; 0.5 ppm in standard chicken bouillon base) was “More body and fatty notes, salivating and good aftertaste”. For the same compound, the “taste description by expert tasters” value [6] was “more salty, fatty, total profile is enhanced”, the “taste description by expert tasters” value [7] was “Strong umami, lingering cheese bite” and the “taste description by expert tasters” value [8] was “Strong umami, cheese bite, expanding”.
